Data taken from US10065956B2, “Ethynyl derivatives” (Hoffmann-La Roche Inc., priority 2015, dated 2018).
Values belong to the molecule of their own block, whether it stands above or below them.

Target: T1, human mGlu4 receptor (Homo sapiens, UniProt Q14833)
T1 construct: expressed in transfected cells; host or cells: monoclonal HEK-293 cell line, stably transfected
Assay: Ca2+ mobilization in vitro assay on recombinant human mGlu4 expressed in HEK293 cells (PAM, L-AP4 at EC20)
Assay type: cell-based
Settings: for Emax: HEK293, maximal response in % of the maximal stimulatory effect obtained with saturating concentrations of L-AP4, read-out: Eff. (%); for EC50: HEK293 cells expressing human mGlu4, L-AP4 added at EC20
Description: FIG. 1: Illustration of the experimental outline for mGlu4 PAM Ca2+ mobilization screening assay and the determination of EC50 and % Emax values.
Determination of EC50 Values Using a Ca2+ Mobilization In Vitro Assay on Recombinant Human mGlu4 Expressed in HEK293 Cells:
A monoclonal HEK-293 cell line stably transfected with a cDNA encoding for the human mGlu4 receptor was generated; for the work with mGlu4 Positive Allosteric Modulators (PAMs), a cell line with low receptor expression levels and low constitutive receptor activity was selected to allow the differentiation of agonistic versus PAM activity. Cells were cultured according to standard protocols (Freshney, 2000) in Dulbecco's Modified Eagle Medium with high glucose supplemented with 1 mM glutamine, 10% (vol/vol) heat-inactivated bovine calf serum, Penicillin/Streptomycin, 50 μg/ml hygromycin and 15 μg/ml blasticidin (all cell culture reagents and antibiotics from Invitrogen, Basel, Switzerland).
About 24 hrs before an experiment, 5×10^4 cells/well were seeded in poly-D-lysine coated, black/clear-bottomed 96-well plates. The cells were loaded with 2.5 μM Fluo-4AM in loading buffer (1×HBSS, 20 mM HEPES) for 1 hr at 37° C. and washed five times with loading buffer. The cells were transferred into a Functional Drug Screening System 7000 (Hamamatsu, Paris, France), and 11 half logarithmic serial dilutions of test compound at 37° C. were added and the cells were incubated for 10-30 min. with on-line recording of fluorescence. Following this pre-incubation step, the agonist (2S)-2-amino-4-phosphonobutanoic acid (L-AP4) was added to the cells at a concentration corresponding to EC20 with on-line recording of fluorescence; in order to account for day-to-day variations in the responsiveness of cells, the EC20 of L-AP4 was determined immediately ahead of each experiment by recording of a full dose-response curve of L-AP4. Responses were measured as peak increase in fluorescence minus basal (i.e. fluorescence without addition of L-AP4), normalized to the maximal stimulatory effect obtained with saturating concentrations of L-AP4. Graphs were plotted with the % maximal stimulatory using XLfit, a curve fitting program that iteratively plots the data using Levenburg Marquardt algorithm. The single site competition analysis equation used was y=A+((B−A)/(1+((x/C)D))), where y is the % maximal stimulatory effect, A is the minimum y, B is the maximum y, C is the EC50, x is the log 10 of the concentration of the competing compound and D is the slope of the curve (the Hill Coefficient). From these curves the EC50 (drug concentration at which 50% of the maximal receptor activation was achieved), the Hill coefficient as well as the maximal response in % of the maximal stimulatory effect obtained with saturating concentrations of L-AP4 were calculated (see FIG. 1). […] A depression of the signal observed after addition of the EC20 concentration of L-AP4 was indicative of an inhibitory activity of the test compound.

T1 sequence (Q14833 33-912): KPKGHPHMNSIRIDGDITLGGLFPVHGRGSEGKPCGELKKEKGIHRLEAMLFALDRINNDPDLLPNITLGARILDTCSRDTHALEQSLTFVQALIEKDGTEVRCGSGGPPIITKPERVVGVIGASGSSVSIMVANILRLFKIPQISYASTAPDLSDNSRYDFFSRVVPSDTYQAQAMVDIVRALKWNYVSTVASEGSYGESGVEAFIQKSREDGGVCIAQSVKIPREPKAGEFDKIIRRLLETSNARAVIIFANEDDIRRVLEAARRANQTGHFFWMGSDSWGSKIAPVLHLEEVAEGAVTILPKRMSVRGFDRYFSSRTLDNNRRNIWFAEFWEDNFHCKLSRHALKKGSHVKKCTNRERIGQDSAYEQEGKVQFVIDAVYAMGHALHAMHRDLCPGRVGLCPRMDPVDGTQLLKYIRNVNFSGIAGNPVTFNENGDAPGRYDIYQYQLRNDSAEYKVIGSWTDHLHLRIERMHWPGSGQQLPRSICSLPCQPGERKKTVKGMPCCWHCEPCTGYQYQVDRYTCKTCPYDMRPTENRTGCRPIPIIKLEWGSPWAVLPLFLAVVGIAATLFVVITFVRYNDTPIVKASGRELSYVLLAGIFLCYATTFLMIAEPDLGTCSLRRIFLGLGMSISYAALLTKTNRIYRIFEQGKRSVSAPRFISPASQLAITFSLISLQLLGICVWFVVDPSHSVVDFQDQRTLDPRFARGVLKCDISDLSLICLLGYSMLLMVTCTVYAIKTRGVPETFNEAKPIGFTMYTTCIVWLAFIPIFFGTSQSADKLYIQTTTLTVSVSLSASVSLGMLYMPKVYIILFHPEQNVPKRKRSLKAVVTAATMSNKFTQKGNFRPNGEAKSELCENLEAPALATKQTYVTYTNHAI

Compound: CC(C)n1ccc([C@]2(C)CC(=O)N(c3c(F)cc(C#Cc4ccccc4)cc3F)C(=O)N2C)n1 [Example 29, (6S)-3-[2,6-Difluoro-4-(2-phenylethynyl)phenyl]-6-(1-isopropylpyrazol-3-yl)-1,6-dimethyl-hexahydropyrimidine-2,4-dione]
Emax: 146%
EC50: 126 nM

Compound: CN1C(=O)N(c2c(F)cc(C#Cc3ccccc3)cc2F)C(=O)C[C@@]1(C)c1ccns1 [Example 43, (6S)-3-[2,6-Difluoro-4-(2-phenylethynyl)phenyl]-6-isothiazol-5-yl-1,6-dimethyl-hexahydropyrimidine-2,4-dione]
Emax: 151%
EC50: 67 nM

Compound: CN1C(=O)N(c2c(F)cc(C#Cc3cccc(F)c3F)cc2F)C(=O)C[C@@]1(C)c1cnn(C)c1 [Example 57, (6S)-3-[4-[2-(2,3-Difluorophenyl)ethynyl]-2,6-difluoro-phenyl]-1,6-dimethyl-6-(1-methylpyrazol-4-yl)hexahydropyrimidine-2,4-dione]
Emax: 143%
EC50: 97 nM

Compound: CN1C(=O)N(c2c(F)cc(C#Cc3cnsc3)cc2F)C(=O)C[C@@]1(C)c1cnn(C)c1 [Example 25, (6S)-3-[2,6-Difluoro-4-(2-isothiazol-4-ylethynyl)phenyl]-1,6-dimethyl-6-(1-methylpyrazol-4-yl)hexahydropyrimidine-2,4-dione]
Emax: 149%
EC50: 45 nM

Compound: CN1C(=O)N(c2c(F)cc(C#Cc3ccccc3F)cc2F)C(=O)C[C@@]1(C)c1cnn(C)c1 [Example 50, (6S)-3-[2,6-Difluoro-4-[2-(2-fluorophenyl)ethynyl]phenyl]-1,6-dimethyl-6-(1-methylpyrazol-4-yl)hexahydropyrimidine-2,4-dione]
Emax: 147%
EC50: 50 nM

Compound: CN1C(=O)N(c2c(F)cc(C#Cc3ccccc3)cc2F)C(=O)C[C@@]1(C)c1nccs1 [Example 1, (6S)-3-[2,6-Difluoro-4-(2-phenylethynyl)phenyl]-1,6-dimethyl-6-thiazol-2-yl-hexahydropyrimidine-2,4-dione]
Emax: 119%
EC50: 113 nM

Compound: CN1C(=O)N(c2c(F)cc(C#Cc3ccccc3)cc2F)C(=O)C[C@@]1(C)c1cn(C)c2ncccc12 [Example 9, (6S)-3-[2,6-Difluoro-4-(2-phenylethynyl)phenyl]-1,6-dimethyl-6-(1-methylpyrrolo[2,3-b]pyridin-3-yl)hexahydropyrimidine-2,4-dione]
Emax: 155%
EC50: 81 nM

Compound: CN1C(=O)N(c2c(F)cc(C#Cc3cccc(F)c3)cc2F)C(=O)C[C@@]1(C)c1cnn(C)c1 [Example 47, (6S)-3-[2,6-Difluoro-4-[2-(3-fluorophenyl)ethynyl]phenyl]-1,6-dimethyl-6-(1-methylpyrazol-4-yl)hexahydropyrimidine-2,4-dione]
Emax: 136%
EC50: 71 nM

Compound: CN1C(=O)N(c2c(F)cc(C#Cc3ccccc3)cc2F)C(=O)C[C@@]1(C)c1cnco1 [Example 35, (6S)-3-[2,6-Difluoro-4-(2-phenylethynyl)phenyl]-1,6-dimethyl-6-oxazol-5-yl-hexahydropyrimidine-2,4-dione]
Emax: 195%
EC50: 90 nM

Compound: CC[C@@]1(c2ccn(C)n2)CC(=O)N(c2c(F)cc(C#Cc3ccccc3)cc2F)C(=O)N1C [Example 27, (6S)-3-[2,6-Difluoro-4-(2-phenylethynyl)phenyl]-6-ethyl-1-methyl-6-(1-methylpyrazol-3-yl)hexahydropyrimidine-2,4-dione]
Emax: 143%
EC50: 83 nM

Compound: CN1C(=O)N(c2c(F)cc(C#Cc3ccccc3)cc2F)C(=O)C[C@@]1(C)c1cnn(CCCO)c1 [Example 22, (6S)-3-[2,6-Difluoro-4-(2-phenylethynyl)phenyl]-6-[1-(3-hydroxypropyl)pyrazol-4-yl]-1,6-dimethyl-hexahydropyrimidine-2,4-dione]
Emax: 143%
EC50: 56 nM

Compound: CC[C@@]1(c2cnn(C)c2)CC(=O)N(c2c(F)cc(C#Cc3ccccc3)cc2F)C(=O)N1C [Example 18, (6S)-3-[2,6-Difluoro-4-(2-phenylethynyl)phenyl]-6-ethyl-1-methyl-6-(1-methylpyrazol-4-yl)hexahydropyrimidine-2,4-dione]
Emax: 135%
EC50: 47 nM

Compound: CN1C(=O)N(c2c(F)cc(C#Cc3ccccc3)cc2F)C(=O)C[C@@]1(C)c1cnn[nH]1 [Example 32, (6S)-3-[2,6-Difluoro-4-(2-phenylethynyl)phenyl]-1,6-dimethyl-6-(1H-triazol-5-yl)hexahydropyrimidine-2,4-dione]
Emax: 114%
EC50: 20 nM

Compound: CN1C(=O)N(c2c(F)cc(C#Cc3cc(F)ccc3F)cc2F)C(=O)C[C@@]1(C)c1cnn(C)c1 [Example 48, (6S)-3-[4-[2-(2,5-Difluorophenyl)ethynyl]-2,6-difluoro-phenyl]-1,6-dimethyl-6-(1-methylpyrazol-4-yl)hexahydropyrimidine-2,4-dione]
Emax: 140%
EC50: 79 nM

Compound: CCN1C(=O)N(c2c(F)cc(C#Cc3ccccc3)cc2F)C(=O)C[C@@]1(C)c1cnn(C)c1 [Example 12, (6S)-3-[2,6-Difluoro-4-(2-phenylethynyl)phenyl]-1-ethyl-6-methyl-6-(1-methylpyrazol-4-yl)hexahydropyrimidine-2,4-dione]
Emax: 95%
EC50: 67 nM

Compound: CN1C(=O)N(c2c(F)cc(C#Cc3ccccc3)cc2F)C(=O)C[C@@]1(C)c1cn(C)nn1 [Example 34, (6S)-3-[2,6-Difluoro-4-(2-phenylethynyl)phenyl]-1,6-dimethyl-6-(1-methyltriazol-4-yl)hexahydropyrimidine-2,4-dione]
Emax: 207%
EC50: 71 nM

More lines, in order of falling EC50, values ahead:

Emax: 95%
EC50: 136 nM
Compound: CN1C(=O)N(c2c(F)cc(C#Cc3ccccc3)cc2F)C(=O)C[C@@]1(C)c1ncnn1C [Example 4, (6S)-3-[2,6-Difluoro-4-(2-phenylethynyl)phenyl]-1,6-dimethyl-6-(2-methyl-1,2,4-triazol-3-yl)hexahydropyrimidine-2,4-dione]

Emax: 153%
EC50: 99 nM
Compound: CN1C(=O)N(c2c(F)cc(C#Cc3ccccc3)cc2Cl)C(=O)C[C@@]1(C)c1cnn(C)c1 [Example 44, (6S)-3-[2-Chloro-6-fluoro-4-(2-phenylethynyl)phenyl]-1,6-dimethyl-6-(1-methylpyrazol-4-yl)hexahydropyrimidine-2,4-dione]

Emax: 136%
EC50: 70 nM
Compound: COCCCn1cc([C@]2(C)CC(=O)N(c3c(F)cc(C#Cc4ccccc4)cc3F)C(=O)N2C)cn1 [Example 21, (6S)-3-[2,6-Difluoro-4-(2-phenylethynyl)phenyl]-6-[1-(3-methoxypropyl)pyrazol-4-yl]-1,6-dimethyl-hexahydropyrimidine-2,4-dione]

Emax: 143%
EC50: 59 nM
Compound: COCCn1ccc([C@]2(C)CC(=O)N(c3c(F)cc(C#Cc4ccccc4)cc3F)C(=O)N2C)n1 [Example 30, (6S)-3-[2,6-Difluoro-4-(2-phenylethynyl)phenyl]-6-[1-(2-methoxyethyl)pyrazol-3-yl]-1,6-dimethyl-hexahydropyrimidine-2,4-dione]

Emax: 134%
EC50: 54 nM
Compound: CN1C(=O)N(c2c(F)cc(C#Cc3cccc(F)c3F)cc2F)C(=O)C[C@@]1(C)c1cn[nH]c1 [Example 55, (6S)-3-[4-[2-(2,3-Difluorophenyl)ethynyl]-2,6-difluoro-phenyl]-1,6-dimethyl-6-(1H-pyrazol-4-yl)hexahydropyrimidine-2,4-dione]

Emax: 136%
EC50: 45 nM
Compound: CC[C@@]1(c2cn[nH]c2)CC(=O)N(c2c(F)cc(C#Cc3cccnc3)cc2F)C(=O)N1C [Example 51, (6S)-3-[2,6-Difluoro-4-[2-(3-pyridyl)ethynyl]phenyl]-6-ethyl-1-methyl-6-(1H-pyrazol-4-yl)hexahydropyrimidine-2,4-dione]

Emax: 145%
EC50: 17 nM
Compound: CN1C(=O)N(c2c(F)cc(C#Cc3ccccc3F)cc2F)C(=O)C[C@@]1(C)c1cn[nH]c1 [Example 53, (6S)-3-[2,6-Difluoro-4-[2-(2-fluorophenyl)ethynyl]phenyl]-1,6-dimethyl-6-(1H-pyrazol-4-yl)hexahydropyrimidine-2,4-dione]
